By IC50 is commonly meant the concentration at which inhibition is half-maximal.

This test addresses T1, chymotrypsin-like activity of the 20S proteasome (Homo sapiens, UniProt P20618+P28074).
T1 construct: purified human placenta 20S proteasome; tissue Diabetes Forschungsinstitut, Düsseldorf, Germany; host or cells: human placenta
The experiment in a line: Inhibition of the chymotrypsin-like activity of the 20S proteasome (Suc-LLVY-AMC hydrolysis). The format is biochemical. The following applies: purified human placenta 20S proteasome, Suc-LLVY-AMC substrate, read-out: IC50 [μM] (results of one or two experiments). The source says:
It is based on the hydrolysis of the fluorogenic peptide Suc-LLVY-AMC (Succinyl-leucine-leucine-vatine-tyrosine-7-amino-4-methyl-coumarin), which is cleaved exclusively at the Y-AMC bond by the 20S proteasome. Hydrolysis of this peptide is accompanied by an increase in fluorescence intensity (λex (excitation wavelength): 355 nm; μem (emission wavelength): 460 nm) due to release of the […] that accompanies diffusion apart of the hydrolysis product Suc-LLVY.
2 μl of a 1 mM solution of a test compound in DMSO (dimethylsulfoxide, 20 μM final concentration in the well) are preincubated for 60 min at room temperature in black 96-well microtiter plates together with a mixture of 1 μl purified human placenta 20S proteasome (Diabetes Forschungsinstitut, DÜsseldorf, Germany; about 100 ng proteasome, depending on the proteasome preparation) and 47 μl buffer-Ca (5 mM CaCl2, 20 mM Tris/HCl (Tris-(hydroxymethyl)-amino-methane hydrochloride) pH 8.0). 3 μl of a 2.67 mM solution of Suc-LLVY-AMC (Bachem, Switzerland) in DMSO (80 μM final concentration in the well) and 47 μl buffer-Ca are mixed and added. The resulting mixture is incubated for 3-24 h at 37° C. If desired, proteolysis of the substrate can be stopped by addition of 50 μl stop solution (100 mM monochloroacetic acid, 130 mM NaOH, 100 mM acetic acid, pH=4.3). The fluorescence is monitored with a FLUOROSKAN ASCENT™ microtiter plate reader.
For each measurement series two control experiments are carried out: • 1.) 0% value: 2 μl DMSO are used in the above described assay instead of 2 μl of a 1 mM solution of a test compound in DMSO and 48 μl buffer-Ca instead of a mixture of 47 μl buffer-Ca and 1 μl purified proteasome. • 2.) 100% value: in the above described assay 2 μl DMSO are used instead of 2 μl of a 1 mM solution of the test compound in DMSO. Calculation [formula]
The IC50 value is defined as that concentration of a compound at which the remaining activity is 50% compared to the […].

Several values for one entry are separate records, joined by “and”; a condition that tells them apart may be missing. Equal entries are not always repeated.

Take `COc1cc(C[C@H](NC(=O)Cc2cccc(Oc3ccccc3)c2)C(=O)N[C@H](C(=O)N[C@@H](CC(C)C)B2O[C@@H]3C[C@@H]4C[C@@H](C4(C)C)[C@]3(C)O2)C(C)C)cc(OC)c1OC` [Example 27, (S)-3-Methyl-N-[(R)-3-methyl-1-((1S,2S,6R,8S)-2,9,9-trimethyl-3,5-dioxa-4-bora-tricyclo[6.1.1.0^2,6]dec-4-yl)-butyl]-2-[(S)-2-[2-(3-phenoxy-phenyl)-acetylamino]-3-(3,4,5-trimethoxy-phenyl)-propionylamino]-butyramide]: the IC50 was determined as 0.0003 µM. In the case of `COc1ccc(C[C@H](Nc2cccc(-c3ccccc3)c2)C(=O)N[C@H](C(=O)N[C@@H](CC(C)C)B(O)O)C(C)C)cc1OC` [Example 10, (R)-1-{(S)-2-[(S)-2-(Biphenyl-3-ylamino)-3-(3,4-dimethoxy-phenyl)-propionylamino]-3-methyl-butyrylamino}-3-methyl-butylboronic acid], the IC50 is 0.0029 µM and 0.004 µM. Regarding `COc1cc(C[C@H](Nc2cccc(C(C)C)c2)C(=O)N[C@@H](C)C(=O)N[C@@H](CC(C)C)B2O[C@@H]3C[C@@H]4C[C@@H](C4(C)C)[C@]3(C)O2)cc(OC)c1OC` [Example 45, (S)-2-(3-Isopropyl-phenylamino)-N-{(S)-1-[(R)-3-methyl-1-((1S,2S,6R,8S)-2,9,9-trimethyl-3,5-dioxa-4-bora-tricyclo[6.1.1.0^2,6]dec-4-yl)-butylcarbamoyl]-ethyl}-3-(3,4,5-trimethoxy-phenyl)-propionamide], the IC50 was determined as 0.0013 µM. `COc1ccc(C[C@H](Nc2cccc(-c3ccccc3)c2)C(=O)N[C@@H](C)C(=O)N[C@@H](CC(C)C)B2O[C@@H]3C[C@@H]4C[C@@H](C4(C)C)[C@]3(C)O2)cc1OC` [Example 43, (S)-2-(Biphenyl-3-ylamino)-3-(3,4-dimethoxy-phenyl)-N-{(S)-1-[(R)3-methyl-1-((1S,2S,6R,8S)-2,9,9-trimethyl-3,5-dioxa-4-bora-tricyclo[6.1.1.0^2,6]dec-4-yl)-butylcarbamoyl]-ethyl}-propionamide]: the IC50 was 0.0018 µM.

For the compound `COc1cc(C[C@H](Nc2cccc(-c3ccccc3)c2)C(=O)N[C@H](C(=O)N[C@@H](CC(C)C)B(O)O)C(C)C)cc(OC)c1OC` [Example 2, (R)-1-{(S)-2-[(S)-2-(Biphenyl-3-ylamino)-3-(3,4,5-trimethoxy-phenyl)-propionylamino]-3-methyl-butyrylamino}-3-methyl-butylboronic acid], the IC50 was 0.0028 µM and 0.0021 µM. Then `COc1ccc(C[C@H](Nc2cccc(-c3ccccc3)c2)C(=O)N[C@H](C(=O)N[C@@H](Cc2ccccc2)B(O)O)C(C)C)cc1` [Example 52, (R)-1-{(S)-2-[(S)-2-(Biphenyl-3-ylamino)-3-(4-methoxy-phenyl)-propionylamino]-3-methyl-butyrylamino}-2-phenyl-ethylboronic acid], with 0.005 µM. Then `COc1cc(C[C@H](Nc2cccc(-c3ccccc3)c2)C(=O)N[C@H](C(=O)NC(CC(C)C)B(O)O)C(C)C)cc(OC)c1OC` (stereo partly drawn) [Example 24, 1-{(S)-2-[(S)-2-(Biphenyl-3-ylamino)-3-(3,4,5-trimethoxy-phenyl)-propionylamino]-3-methyl-butyrylamino}-3-methyl-butylboronic acid], with 0.0021 µM; and `COc1cc(C[C@H](Nc2cccc(-c3ccccn3)c2)C(=O)N[C@H](C(=O)N[C@@H](CC(C)C)B2O[C@@H]3C[C@@H]4C[C@@H](C4(C)C)[C@]3(C)O2)C(C)C)cc(OC)c1OC` [Example 13, (S)-3-Methyl-N-[(R)-3-methyl-1-((1S,2S,6R,8S)-2,9,9-trimethyl-3,5-dioxa-4-bora-tricyclo[6.1.1.0^2,6]dec-4-yl)-butyl]-2-[(S)-2-(3-pyridin-2-yl-phenylamino)-3-(3,4,5-trimethoxy-phenyl)-propionylamino]-butyramide], with 0.0013 µM; and `COc1cc(C[C@H](Nc2cccc(-c3ccccc3)c2)C(=O)N[C@H](C(=O)N[C@@H](CC(C)C)B2O[C@@H]3C[C@@H]4C[C@@H](C4(C)C)[C@]3(C)O2)C(C)C)cc(OC)c1OC` [Example 1, (S)-2-[(S)-2-(Biphenyl-3-ylamino)-3-(3,4,5-trimethoxy-phenyl)-propionylamino]-3-methyl-N-[(R)-3-methyl-1-((1S,2S,6R,8S)-2,9,9-trimethyl-3,5-dioxa-4-bora-tricyclo[6.1.1.0^2,6]dec-4-yl)-butyl]-butyramide], with 0.0046 µM and 0.0024 µM.

Take `COc1ccc(C[C@H](Nc2cccc(-c3ccccc3)c2)C(=O)N[C@@H](C)C(=O)N[C@@H](CC(C)C)B(O)O)c(OC)c1OC` [Example 40, (R)-1-{(S)-2-[(S)-2-(Biphenyl-3-ylamino)-3-(2,3,4-trimethoxy-phenyl)-propionylamino]-propionylamino}-3-methyl-butylboronic acid]: the IC50 is 0.0022 µM. With `COc1ccc(C[C@H](NC(=O)Cc2cccc(Oc3ccccc3)c2)C(=O)N[C@H](C(=O)N[C@@H](CC(C)C)B(O)O)C(C)C)cc1OC` [Example 26, (R)-1-((S)-2-{(S)-3-(3,4-Dimethoxy-phenyl)-2-[2-(3-phenoxy-phenyl)-acetylamino]-propionylamino}-3-methyl-butyrylamino)-3-methyl-butylboronic acid], the IC50 stood at 0.001 µM. Then `CC(C)C[C@H](NC(=O)[C@@H](NC(=O)[C@H](Cc1ccc(OCc2ccccc2)cc1)Nc1cccc(-c2ccccc2)c1)C(C)C)B(O)O` [Example 18, (R)-1-{(S)-2-[(S)-3-(4-Benzyloxy-phenyl)-2-(biphenyl-3-ylamino)-propionylamino]-3-methyl-butyrylamino}-3-methyl-butylboronic acid], with 0.0015 µM.

On to `COc1ccc(C[C@H](Nc2cccc(-c3ccccc3)c2)C(=O)N[C@@H](CC(C)C)C(=O)N[C@@H](CC(C)C)B2O[C@@H]3C[C@@H]4C[C@@H](C4(C)C)[C@]3(C)O2)cc1OC` [Example 33, (S)-2-[(S)-2-(Biphenyl-3-ylamino)-3-(3,4-dimethoxy-phenyl)-propionylamino]-4-methyl-pentanoic acid [(R)-3-methyl-1-((1S,2S,6R,8S)-2,9,9-trimethyl-3,5-dioxa-4-bora-tricyclo[6.1.1.0^2,6]dec-4-yl)-butyl]-amide], for which the IC50 was 0.0026 µM.

Regarding `CC(C)C[C@H](NC(=O)[C@@H](NC(=O)[C@H](Cc1ccc(OCc2ccccc2)cc1)NC(=O)Cc1cccc(OCc2ccccc2)c1)C(C)C)B1O[C@@H]2C[C@@H]3C[C@@H](C3(C)C)[C@]2(C)O1` [Example 29, (S)-2-{(S)-3-(4-Benzyloxy-phenyl)-2-[2-(3-benzyloxy-phenyl)-acetylamino]-propionylamino}-3-methyl-N-[(R)-3-methyl-1-((1S,2S,6R,8S)-2,9,9-trimethyl-3,5-dioxa-4-bora-tricyclo[6.1.1.0^2,6]dec-4-yl)-butyl]-butyramide], the IC50 turned out to be 0.004 µM.

`COc1cc(C[C@H](Nc2cccc(-c3ccccc3)c2)C(=O)N[C@@H](CC(C)C)C(=O)N[C@@H](CC(C)C)B2O[C@@H]3C[C@@H]4C[C@@H](C4(C)C)[C@]3(C)O2)cc(OC)c1OC` [Example 31, (S)-2-[(S)-2-(Biphenyl-3-ylamino)-3-(3,4,5-trimethoxy-phenyl)-propionylamino]-4-methyl-pentanoic acid [(R)-3-methyl-1-((1S,2S,6R,8S)-2,9,9-trimethyl-3,5-dioxa-4-bora-tricyclo[6.1.1.0^2,6]dec-4-yl)-butyl]-amide]: the IC50 is 0.0022 µM.

On to `COc1ccc(C[C@H](NC(=O)Cc2cccc(Oc3ccccc3)c2)C(=O)N[C@H](C(=O)N[C@@H](CC(C)C)B2O[C@@H]3C[C@@H]4C[C@@H](C4(C)C)[C@]3(C)O2)C(C)C)cc1OC` [Example 25, (S)-2-{(S)-3-(3,4-Dimethoxy-phenyl)-2-[2-(3-phenoxy-phenyl)-acetylamino]-propionylamino}-3-methyl-N-[(R)-3-methyl-1-((1S,2S,6R,8S)-2,9,9-trimethyl-3,5-dioxa-4-bora-tricyclo[6.1.1.0^2,6]dec-4-yl)-butyl]-butyramide], for which the IC50 came to 0.0008 µM.

On to `COc1cc(C[C@@H](Nc2cccc(-c3ccccc3)c2)C(=O)N[C@H](C(=O)N[C@@H](CC(C)C)B(O)O)C(C)C)cc(OC)c1OC` [Example 22, (R)-1-{(S)-2-[(R)-2-(Biphenyl-3-ylamino)-3-(3,4,5-trimethoxy-phenyl)-propionylamino]-3-methyl-butyrylamino}-3-methyl-butylboronic acid], for which the 50% inhibitory concentration (IC50) stood at 0.0017 µM. Consider “(R)-1-{(S)-2-[(S)-2-(Biphenyl-3-ylamino)-3-(3,4,5-trimethoxy-phenyl)-propionylamino]-4-methyl-pentanoylamino}-3-methyl-butylboronic acid [Example 34]”, for which the IC50 was found to be 0.0013 µM.

The values are drawn from US6933290B2, “2-{N-(2-amino-3-(heteroaryl or aryl)propionyl)-aminoacyl}-amino}-alkylboronic acid derivatives” (Novartis AG, priority 2001, dated 2005).
